Measured values taken from patent US20250120932A1, “PHARMACEUTICAL COMPOSITION” (NEUROPRO THERAPEUTICS, INC., priority 2021, published 2025).

Assays:
[1] = Effect of water content on solubility (formulations F1-F3); assay type: physicochemical
Description: Increasing amounts of PVP and Poloxamer were added to compositions F1-F3 to inhibit rapid precipitation upon dilution in water.
The solutions were then cooled to ambient room temperature and mixed for ˜4 hours prior to filtering and being evaluated by an assay.

[2] = Nasal solution solubility evaluation in solvent/co-solvent systems (HPLC-UV); assay type: physicochemical; conditions: organic solvent or mixture, thermodynamic from solid; Caprylocaproyl Polyoxylglycerides (Labrasol ALF), Composition 8
Description: The solvents were chosen from a group consisting of Caprylocaproyl Polyoxylglycerides (Labrasol ALF), propylene glycol, PEG-400, vitamin E TPGS, ethanol, water, and any combination thereof.
50 g stock solutions of each solvent system were prepared. The active solutions 3.0 mL of each solvent was aliquoted to separate 8 mL clear glass vials. […] Every 30 minutes the solutions were inspected. […] This process was repeated until visible saturation of all solvent systems was obtained. Prior to analysis, the samples were centrifuged at 5,000 RPM for 3 minutes and filtered through a 0.45 μm nylon syringe filter to remove excess solids.
The dose calculations included in Table 42 are based on 75% of the concentration at saturation. This is to reduce the risk of precipitation/crystallization due to environmental fluctuations. Additionally, two dose volumes (0.2/0.5 mL) were selected in accordance with the standard range for nasal delivery. The total dose illustrated is based on the equivalent volume delivered to each nostril, 0.4-1.0 mL total per dose.

[3] = Oral delivery of unformulated Bumetanide Dibenzylamide in Beagle dogs, pharmacokinetics and bioavailability; assay type: in vivo
[4] = Solubility in injection vehicle compositions; assay type: physicochemical; conditions: 40% PEG-400, 20% Propylene glycol, 5% Ethanol, 35% water
Text: Multiple vehicle compositions were investigated, resulting in a clear dosing solution or suspension at the time of the preparation or shortly after the preparation. Vehicles tested included 55% Polyethylene glycol 400 (PEG-400) in water, 41% PEG-400, 12% Ethanol, 47% water, 45% PEG-400, 10% DMSO, 45% Water, 31% PEG-400, 31% Tetraglycol, 15% Caprylocaproyl Polyoxylglycerides (Labrasol ALF), 23% water, 30% PEG-400, 10% N-Methyl Pyrrolidone, 10% DMSO, 50% water, 25% PEG-400, 10% DMSO, 20% Tetraglycol, 45% water, 20% Ethanol in water, 20% Hydroxypropyl-β-Cyclodextrin in water, 11% DMSO, 22% PEG-400, 22% Tetraglycol, 44% water, 44% PEG-400, 0.4% Poloxamer-188, 22% N-Methyl Pyrrolidone, 33% water, and 20% PEG-400, 15% Hydroxypropyl-β-Cyclodextrin in water.
After filtration with a 0.22 μm PVDF filter, the sample stayed clear for up to 7 days. The compositions selected for animal studies are described in Table 67 and Table 68.

maximum concentration of Bumetanide Dibenzylamide ([1]; rectal gel, about 20% water): about 2.4% | maximum concentration of Bumetanide Dibenzylamide ([1]; rectal paste, no water): about 4.16% | solubility at 8 h [2]: ~66 mg/mL | bioavailability ([3]; Beagle, dog, in vivo, 30 mg, oral non-formulated, read-out: Absolute Bioavailability): ~5.1% | concentration at 0.5 h ([3]; Beagle, dog, plasma, oral, 30 mg/kg, Plasma Bumetanide Dibenzylamide concentration, oral non-formulated 30 mg/kg, 0.5 h): 2.99 ng/mL | concentration at 4 h ([3]; Beagle, dog, plasma, oral, 30 mg/kg, Plasma Bumetanide Dibenzylamide concentration, oral non-formulated 30 mg/kg, 4 h): 149 ng/mL | concentration at 6 h ([3]; Beagle, dog, plasma, oral, 30 mg/kg, Plasma Bumetanide Dibenzylamide concentration, oral non-formulated 30 mg/kg, 6 h): 151 ng/mL | concentration at 8 h ([3]; Beagle, dog, plasma, oral, 30 mg/kg, Plasma Bumetanide Dibenzylamide concentration, oral non-formulated 30 mg/kg, 8 h): 101 ng/mL | concentration at 12 h ([3]; Beagle, dog, plasma, oral, 30 mg/kg, Plasma Bumetanide Dibenzylamide concentration, oral non-formulated 30 mg/kg, 12 h): 40.1 ng/mL | Plasma Bumetanide Dibenzylamide concentration ([3]; oral non-formulated 30 mg/kg, 0.5 h): 2.17 ng/mL | Plasma Bumetanide Dibenzylamide concentration ([3]; oral non-formulated 30 mg/kg, 0.5 h, mean): 2.58 ng/mL | Plasma Bumetanide Dibenzylamide concentration ([3]; oral non-formulated 30 mg/kg, 4 h): 136 ng/mL | Plasma Bumetanide Dibenzylamide concentration ([3]; oral non-formulated 30 mg/kg, 4 h, mean): 143 ng/mL | Plasma Bumetanide Dibenzylamide concentration ([3]; oral non-formulated 30 mg/kg, 6 h): 153 ng/mL | Plasma Bumetanide Dibenzylamide concentration ([3]; oral non-formulated 30 mg/kg, 6 h, mean): 152 ng/mL | Plasma Bumetanide Dibenzylamide concentration ([3]; oral non-formulated 30 mg/kg, 8 h): 132 ng/mL | Plasma Bumetanide Dibenzylamide concentration ([3]; oral non-formulated 30 mg/kg, 8 h, mean): 117 ng/mL | Plasma Bumetanide Dibenzylamide concentration ([3]; oral non-formulated 30 mg/kg, 12 h): 50.5 ng/mL | Plasma Bumetanide Dibenzylamide concentration ([3]; oral non-formulated 30 mg/kg, 12 h, mean): 45.3 ng/mL | time sample stayed clear after filtration ([4]; 0.22 μm PVDF filter): up to 7 days | time as clear solution ([4]; room temperature): at least 3 hours
SMILES: CCCCNc1cc(C(=O)N(Cc2ccccc2)Cc2ccccc2)cc(S(N)(=O)=O)c1Oc1ccccc1 [Bumetanide Dibenzylamide, N, N-dibenzyl 3-aminosulfonyl-5-butylamino-4-phenoxybenzamide]
